One assay has as its target T1, bovine thrombin (Bos taurus, UniProt P00735).
T1 construct: bovine thrombin; purchased Sigma (Sigma Chemical Company, St. Louis)
As to the kind of experiment: Determination of inhibitory activity, Ki by Dixon plotting, thrombin. The class given is biochemical. As to conditions: for Ki: substrate N-t-Boc-Leu-Arg-Arg-AMC, pH 8.5, room temperature. An excerpt:
(§1) Materials. Active matriptase was purified from human milk as will be described later. Active urokinase-type plasminogen activator (uPA) was purified by aminobenzamidine-Sepharose 6B (Amersham Pharmacia, Piscataway, N.J.) from a partially purified uPA from human urine. Bovin β-trypsin, bovine thrombin, and fluorescent peptide substrates N-tert-Butoxy-Carbonyl (N-t-Boc)-Gln-Ala-Arg-7-Amido-4-Methylcoumarin (AMC), N-t-Boc-Leu-Gly-Arg-AMC, and N-t-Boc-Leu-Arg-Arg-AMC were purchased from Sigma (Sigma Chemical Company, St. Louis). Small molecule inhibitors were obtained from the Drug Synthesis & Chemistry Branch, Developmental Therapeutics Program, Division of Cancer Treatment and Diagnosis, National Cancer Institute. Other chemicals are all reagent grade.
(§2) Determination of Inhibitory Activity. Inhibitory activity of compounds against each protease was measured at room temperature using fluorescent substrate peptides in 100 mM Tris-HCl (pH 8.5), containing 100 μg/ml of bovine serum albumin. To a cuvette containing 170 μl buffer was added 10 μl of enzyme solution and 10 μl of inhibitors. After pre-incubation, 10 μl of substrate was added, and the solution was mixed well by shaking the cuvette. The residual enzyme activity was then determined by following the change of fluorescence released by hydrolysis of the fluorescent substrates in a fluorescent spectrophotometer (HITACHI F4500), with excitation at 360 nm and emission at 480 nm. Peptide N-t-Boc-Gln-Ala-Arg-AMC was used as a substrate for matriptase and trypsin, peptide N-t-Boc-Leu-Gly-Arg-AMC was used as a substrate for uPA, and peptide N-t-Boc-Leu-Arg-Arg-AMC was used as a substrate for thrombin.
(§3) Kinetic Screening of Compound Inhibitors. The inhibitory activity of each compound was first investigated by using a fixed (75 μM) concentration both of inhibitor and matriptase. […] We recorded the rate of hydrolysis in duplicate in the presence of 6-7 different concentrations of each inhibitor. A straight line of the concentration of inhibitor versus the reciprocal values of the rate of hydrolysis was plotted with SigmaPlot software. Two lines were obtained from two unsaturated substrate concentrations; the X value of the intersection of these lines gives the value of −Ki.

Assay [1] deals with T2, matriptase (Homo sapiens, UniProt Q9Y5Y6).
T2 construct: Gels containing the 70-kDa active matriptase was sliced out, and eluted from gel; from tissue; host or cells: human milk
T2 sequence (Q9Y5Y6 615-855 limits assumed): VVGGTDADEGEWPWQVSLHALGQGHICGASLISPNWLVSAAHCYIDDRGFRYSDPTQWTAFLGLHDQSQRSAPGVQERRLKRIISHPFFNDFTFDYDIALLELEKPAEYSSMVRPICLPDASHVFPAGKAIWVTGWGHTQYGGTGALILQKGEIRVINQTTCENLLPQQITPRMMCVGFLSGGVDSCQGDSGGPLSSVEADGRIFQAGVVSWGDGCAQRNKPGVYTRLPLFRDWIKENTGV
T2 sequence (Q9Y5Y6 190-614 partner limits assumed): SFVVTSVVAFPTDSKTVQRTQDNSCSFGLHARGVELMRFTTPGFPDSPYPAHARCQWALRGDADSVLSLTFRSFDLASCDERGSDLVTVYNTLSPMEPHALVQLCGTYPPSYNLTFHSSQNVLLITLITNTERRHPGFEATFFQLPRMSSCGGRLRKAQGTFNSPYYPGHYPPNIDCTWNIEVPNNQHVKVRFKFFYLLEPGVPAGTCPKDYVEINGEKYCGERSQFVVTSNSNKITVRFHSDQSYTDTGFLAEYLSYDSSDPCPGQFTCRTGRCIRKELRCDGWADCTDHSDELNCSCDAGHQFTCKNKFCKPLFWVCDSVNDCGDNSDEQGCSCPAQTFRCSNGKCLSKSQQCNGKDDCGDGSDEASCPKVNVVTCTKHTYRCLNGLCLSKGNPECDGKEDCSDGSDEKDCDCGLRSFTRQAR
The assay can be described thus: Determination of inhibitory activity, Ki by Dixon plotting, matriptase. It counts as biochemical.
Text: Purification of Active Form Matriptase. Activated matriptase, in a complex with its endogenous inhibitor HAI-1, was purified from human milk by immunoaffinity chromatography, and maintained in its uncomplexed status in glycine buffer pH 2.4, as described previously^11. Matritpase and HAI-1 were further separated by 10% SDS polyacryamide gel electrophoresis. The proteins were stained by Zinc stain Kit (Bio-Rad, Hercules, Calif.). Gels containing the 70-kDa active matriptase was sliced out, and eluted from gel using Electro-Eluter (Bio-Rad, Hercules, Calif.) under non-denatured conditions (Tris-Glysine buffer pH 8.3). Purified, active matriptase was then stored at −80° C. in acid solution.
as §2, §3

Assay [2] concerns the target T2, matriptase. As to the kind of experiment: Matriptase enzyme activity and kinetic parameters with fluorescent peptide substrates. The class given is biochemical. From the text: Purification of active Matriptase_Active matriptase, in the complex form with its endogenous inhibitor HAI-1, was purified from human milk. To separate matriptase from the bound HAI-1, the complex was dissociated by acid and resolved in 10% SDS polyacryamide gel electrophoresis. The proteins were stained by Zinc stain Kit (Bio-Rad, Hercules, Calif.), the 70-kDa active matriptase was sliced out, and eluted from gel using Electro-Eluter (Bio-Rad, Hercules, Calif.) under non-denatured condition (Tris-Glysine buffer pH 8.3).
Determination of matriptase activity_The enzyme activity of matriptase was measured at room temperature in a reaction buffer containing 100 mM Tris-HCl (pH 8.5) and 100_g/ml of BSA using fluorescent peptide as substrate. In brief, 10_l of enzyme solution and 10_l of peptide substrate were added to a cuvette containing 180_l of the reaction buffer. The mixture was mixed well, placed back to a fluorescent spectrophotometer (HITACH F4500), and the release of fluorescence resulting from hydrolysis of the peptide substrate was recorded with excitation at 360 nm and emission at 480 nm.
Determination of kinetic parameter_Substrate concentration versus initial reaction velocity were analyzed by the Michaelis-Menten equation and plotted using SigmaPlot software. Double reciprocal (Lineweaver-Burk) plots thus derived were used to determine Vmax and Km values.
Table 1. Kinetic Parameters of Matriptase for Various Peptide Substrates. […], the release of fluorescence resulting from hydrolysis of the peptide was recorded in a fluorescent spectrophotometer at room temperature with excitation at 360 nm and emission at 480 nm. Km and Vmax were determined by double reciprocal plot derived from Michaelis-Menten equation: […]

Assay [3] concerns the target T3, urokinase-type plasminogen activator (uPA) (Homo sapiens, UniProt P00749).
T3 construct: from tissue; host or cells: human urine
The assay can be described thus: Determination of inhibitory activity, Ki by Dixon plotting, uPA. As to conditions: for Ki: substrate N-t-Boc-Leu-Gly-Arg-AMC, pH 8.5, room temperature; for selectivity between matriptase and uPA (less potent for uPA than for matriptase): ratio of Ki values. The class given is biochemical.
Text: as §1, §2, §3

Assay [4] has as its system PC-3 prostate cancer tumors. As to conditions: nude mice; cited from earlier work.
[5] abbreviates: substrate N-t-Boc-Gln-Ala-Arg-AMC, pH 8.5, room temperature, read-out: Ki Matriptase.
The mark [6] stands for this setting: peptide-AMC substrate hydrolysis by matriptase, room temperature.
[7] abbreviates: read-out: Ki value against matriptase (bound stated in text).

Consider nine molecules from patent US6677377B2, “Structure based discovery of inhibitors of matriptase for the treatment of cancer and other conditions” (Georgetown University School of Medicine, priority 2000, dated 2004).

“Also recorded” adds a separate entry of the source. Like-named read-outs stand apart in the source and are kept apart here.

`N=C(N)c1ccc(/N=N/c2c(O)ccc3cc4c(/N=N/c5ccc(C(=N)N)cc5)c(O)ccc4cc23)cc1` [Compound 4]: the Ki at bovine thrombin turned out to be 28400 nM; on matriptase [1] (setting [5]), 4500 nM.
hexamidine [Compound 1]: at matriptase [2] (setting [6]), the Michaelis constant (Km) came out at 4.89 µM and the Vmax is listed as 654 nM Amc/min.
In the case of `N=C(N)c1ccc(OCCCCCOc2ccc(C(=N)N)cc2)cc1` [Compound 3], the Ki at matriptase [1] (setting [5]) was found to be 1160 nM.
As for `N=C(N)c1ccc(OCCCOc2ccc(C(=N)N)cc2Br)c(Br)c1` [Compound 5], the Ki was 1570 nM in assay [3], 946 nM at bovine thrombin, less than 1000 nM on matriptase [1] (setting [7]) and 535 nM on matriptase [1] (setting [5]). Moreover, the “more potent against matriptase” value on matriptase [1] (compared with 1 and 3) was “approximately 2 fold”.
Regarding ecotin, the “growth of PC-3 prostate cancer tumors” value in assay [4] is on record as “retards the growth”.
As for `N=C(N)c1ccc(OCCCCCCOc2ccc(C(=N)N)cc2)cc1` [Compound 1, hexamidine, reference compound], the “selectivity between matriptase and uPA (less potent for uPA than for matriptase)” value in assay [3] came out at 16 fold. Besides, the Ki in assay [3] is 14400 nM; on bovine thrombin it was 224 nM; at matriptase [1] (setting [7]), less than 1000 nM; on matriptase [1] (setting [5]) it was 924 nM. Moreover, the “selectivity matriptase versus thrombin/uPA” value on matriptase [1] is “thrombin selective”.
In the case of `CC(=O)N[C@@H](CC(C)C)C(=O)N[C@@H](CC(C)C)C(=O)N[C@H](C=O)CCCNC(=N)N` [leupeptin], on matriptase [2], the “inhibition of matriptase enzyme activity” value was “can also inhibit matriptase enzyme activity”.
As to `N=C(N)c1ccc(Oc2ccc(Oc3ccc(C(=N)N)cc3)cc2)cc1` [Compound 7], in assay [3], the “selectivity between matriptase and uPA (less potent for uPA than for matriptase)” value is 9 fold. Also, the Ki in assay [3] is 1950 nM; on bovine thrombin it was 2670 nM; at matriptase [1] (setting [7]), less than 1000 nM; on matriptase [1] (setting [5]), 208 nM. The “selectivity between matriptase and thrombin” value on bovine thrombin (ratio of Ki values) stood at 13 fold. Moreover, at matriptase [1], the “selectivity matriptase versus thrombin/uPA” value is recorded as “most selective inhibitor for matriptase; also recorded: matriptase selective; also recorded: most selective compound”.
In the case of `N=C(N)c1ccc(OCCCCCCOc2ccc(C(=N)N)cc2I)cc1` [Compound 2], the inhibition constant Ki is 1980 nM in assay [3], 796 nM at bovine thrombin, less than 1000 nM at matriptase [1] (setting [7]) and 191 nM on matriptase [1] (setting [5]). The “decreased potency for thrombin” value on bovine thrombin (compared with compound 1) is “approximately 4 fold”. Moreover, the “selectivity matriptase versus thrombin/uPA” value on matriptase [1] is given as “more selective for matriptase versus thrombin”. Moreover, the “improved potency for matriptase” value on matriptase [1] (compared with compound 1) was “approximately 5 fold”.

For orientation: Ki means a dissociation constant, usually derived from enzyme kinetics or from competition with a known ligand. In general, Km refers to the substrate concentration at which the rate is half of its maximum.
